Activity calls are given as the source filed them. No cut-off for these calls is given here.
Columns and labels:
[1] = Solubility of compound in Luria-Bertani medium at 200 uM; type: physicochemical
[2] = system: BL21-DE3; assay: Inhibition of Bacillus subtilis C-terminal GST-tagged RNAP beta'-CH expressed in Escherichia coli BL21 (DE3) cells binding interaction with Escherichia coli sigma-70/Bacillus subtilis full length SigmaA2.2 expressed in Escherichia coli C41 (DE3) cells using TMB as substrate at 15 uM preincubated for 1 hr followed by substrate addition by ELISA relative to control
[3] = system: Escherichia coli; assay: Antibacterial activity against Escherichia coli DH5[alpha] assessed as growth inhibition at 200 uM measured every 10 mins for 16 hrs by FLUOstar Optima plate reader analysis relative to control; type: functional; conditions: for inhibition of growth at 200 µM: read-out: GI
[4] = system: Bacillus subtilis; assay: Antibacterial activity against Bacillus subtilis 168 assessed as growth inhibition at 200 uM measured every 10 mins for 16 hrs by FLUOstar Optima plate reader analysis relative to control; type: functional; conditions: for inhibition of growth at 200 µM: read-out: GI
[5] = system: Bacillus subtilis; assay: Antibacterial activity against Bacillus subtilis 168 assessed as inhibition of exponential phase of bacterial growth at 200 uM measured every 10 mins for 16 hrs by FLUOstar Optima plate reader analysis relative to control; type: functional; conditions: read-out: GI
[6] = system: Escherichia coli; assay: Antibacterial activity against Escherichia coli DH5[alpha] assessed as inhibition of exponential phase of bacterial growth at 200 uM measured every 10 mins for 16 hrs by FLUOstar Optima plate reader analysis relative to control; type: functional; conditions: read-out: GI

SMILES	solubility [1]	inhibition [2]	inhibition of growth at 200 µM [3]	growth inhibition (GI) [4]	growth inhibition (GI) [3]	inhibition of growth at 200 µM [5]	inhibition of growth at 200 µM [4]	inhibition of growth at 200 µM [6]
O=C(N/N=C/c1cc(Br)cs1)c1ccco1	soluble	inactive	7%	inactive				
COc1cc(OC)c2c(-c3ccc(Cl)cc3)c[nH]c2c1C(=O)NNC(=O)c1ccc[nH]1	soluble	inactive		inactive	inactive			
COc1cc(OC)c2c(-c3ccc(Br)cc3)c[nH]c2c1C(=O)NNC(=O)c1cccs1	soluble	inactive		inactive	inactive			
O=C(N/N=C/c1cccs1)c1ccnc(Cl)c1	soluble	30%	30%			29%		
O=C(N/N=C/c1ccc[nH]1)c1ccnc(Cl)c1	soluble	31%	22%				6%	
COc1cc(OC)c2c(-c3ccc(Br)cc3)c[nH]c2c1C(=O)N/N=C/c1ccco1	soluble	33%	16%	inactive				
COc1cc(OC)c2c(-c3ccc(Cl)cc3)c[nH]c2c1C(=O)NNC(=O)c1c(OC)cc(OC)c2c(-c3ccc(Cl)cc3)c[nH]c12		63%					30%	
O=C(N/N=C/c1cc(Br)cs1)c1cccs1	soluble	36%	23%	inactive				
COc1cc(OC)c2c(-c3ccc(Br)cc3)c[nH]c2c1C(=O)N/N=C/c1cccs1	soluble	inactive	29%	inactive				
O=C(N/N=C/c1cccs1)c1cccs1		27%		inactive				56%
COc1cc(OC)c2c(-c3ccc(Cl)cc3)c[nH]c2c1C(=O)NNC(=O)c1cccs1	soluble	inactive		inactive	inactive			
CO[C@H]1/C=C/O[C@@]2(C)Oc3c(C)c(O)c4c(O)c(c(/C=N/N5CCN(C)CC5)c(O)c4c3C2=O)NC(=O)/C(C)=C\C=C\[C@H](C)[C@H](O)[C@@H](C)[C@@H](O)[C@@H](C)[C@H](OC(C)=O)[C@@H]1C [RIFAMPIN]			98%				100%	
O=C(N/N=C/c1ccc[nH]1)c1cccs1	soluble	34%	22%				33%	
O=C(N/N=C/c1cc(Br)cs1)c1ccc[nH]1	soluble	27%				73%		51%
O=C(N/N=C/c1ccc[nH]1)c1ccc[nH]1	soluble	41%	21%				30%	
O=C(N/N=C/c1cccs1)c1ccncc1Br	soluble	8%	18%				11%	
O=C(N/N=C/c1ccco1)c1ccc[nH]1	soluble	8%	3%	inactive				
O=C(N/N=C/c1ccc[nH]1)c1ccco1	soluble	21%		inactive	inactive			
O=C(N/N=C/c1cccs1)c1ccco1		29%	23%	inactive				

SMILES	solubility [1]	inhibition [2]	inhibition of growth at 200 µM [3]	growth inhibition (GI) [4]	growth inhibition (GI) [3]	inhibition of growth at 200 µM [5]	inhibition of growth at 200 µM [4]	inhibition of growth at 200 µM [6]
COc1cc(OC)c2c(-c3ccc(Br)cc3)c[nH]c2c1C(=O)NNC(=O)c1ccc[nH]1	soluble	inactive		inactive	inactive			
COc1cnc(Cl)cc1C(=O)NNC(=O)c1c(OC)cc(OC)c2c(-c3ccc(Cl)cc3)c[nH]c12	soluble	28%	26%			37%		
COc1cnc(Cl)cc1C(=O)NNC(=O)c1c(OC)cc(OC)c2c(-c3ccc(Br)cc3)c[nH]c12	soluble	17%	24%				13%	
COc1cc(OC)c2c(-c3ccc(Cl)cc3)c[nH]c2c1C(=O)NNC(=O)c1ccnc(Cl)c1	soluble	14%	10%				17%	
COc1cc(OC)c2c(-c3ccc(Cl)cc3)c[nH]c2c1C(=O)NNC(=O)c1ccnc(Br)c1	soluble	24%			inactive	25%		
O=C(N/N=C/c1ccco1)c1ccnc(Cl)c1	soluble	32%	3%	inactive				
COc1cc(OC)c2c(-c3ccc(Br)cc3)c[nH]c2c1C(=O)NNC(=O)c1ccnc(Cl)c1	soluble	17%	15%	inactive				
COc1cc(OC)c2c(-c3ccc(Cl)cc3)c[nH]c2c1C(=O)N/N=C/c1cccs1	soluble	38%		inactive	inactive			
COc1cc(OC)c2c(-c3ccc(Br)cc3)c[nH]c2c1C(=O)NNC(=O)c1ccnc(Br)c1	soluble	20%			inactive	29%		
O=C(N/N=C/c1cccs1)c1ccnc(Br)c1	soluble	6%	59%				35%	
O=C(N/N=C/c1ccc[nH]1)c1ccnc(Br)c1	soluble	8%	53%	inactive				
COc1cc(OC)c2c(-c3ccc(Cl)cc3)c[nH]c2c1C(=O)N/N=C/c1ccco1	soluble	34%					7%	37%
COc1cc(OC)c2c(C)c(C(=O)NNC(=O)c3c(OC)cc(OC)c4c(-c5ccc(Cl)cc5)c[nH]c34)[nH]c2c1		72%	45%					
O=C(N/N=C/c1ccco1)c1ccco1	soluble	3%	18%	inactive				
O=C(N/N=C/c1ccc[nH]1)c1ccncc1Br	soluble	9%	7%	inactive				
O=C(N/N=C/c1cccs1)c1ccc[nH]1	soluble	20%		inactive				26%
O=C(N/N=C/c1ccco1)c1cccs1	soluble	18%					4%	50%
COc1cc(OC)c2c(-c3ccc(Br)cc3)c[nH]c2c1C(=O)NNC(=O)c1ccncc1Br	soluble	3%	14%			52%		
COc1cc(OC)c2c(-c3ccc(Br)cc3)c[nH]c2c1C(=O)N/N=C/c1ccc[nH]1	soluble	46%		inactive	inactive			
